Legend:
C3 fragment deposition = experiment: Phase 2 study in PNH subjects: C3 fragment deposition percentage; type: in vivo, human
Description: C3 fragment deposition is measured using blood by flow cytometry that would be known to those of skill in the art. In a typical protocol, a blood sample is collected from eculizumab-treated PNH patients or healthy individuals. Erythrocytes are harvested by centrifugation, washed with PBS several times until the supernatant remains clear. C3 fragment deposition on the PNH erythrocytes membrane is measured by flow cytometry using FITC-conjugated anti-C3c, PE conjugated anti-CD47 and APC-conjugated anti-CD59 following dilution of reaction mixtures in FC buffer. Intact and fragmented PNH erythrocytes are identified by anti-CD47 (positive) and anti-CD59 (negative) staining C3 fragment deposition is assessed by anti-C3c staining.
(§1) The starting dose of compound 1 is based upon group assignment. The Group 1 dose is 100mg three times daily (TID). The Group 2 dose is 150 mg TID. The Group 3 dose is 200 mg TID. The Group 4 dose will receive the optimal dose determined from Groups 1-3.
All doses are taken approximately 15-30 minutes after completion of a meal or snack.
This will be followed by a long-term extension phase.
(§2) 2 subjects in the first dose level of 100 mg TID have been completed and data collected through 4 weeks. Data collected include lactate dehydrogenase (LDH) levels, hemoglobin levels, reticulocytes, PNH red blood cells (Type III) percentage, C3 Fragment Deposition percentage, and bilirubin levels and their changes from baseline.
Measurement of C3 fragment deposition percentage is a pharmacodynamic marker that is measured by flow cytometry of subject plasma samples collected on Day 1, Week 2, and Week 4 (FIGS. 17A & 17B and Table 19). Uncontrolled C3 activation due to the absence of CD55 on red blood cells may result in opsonization of red blood cells, leading to clinically meaningful extravascular hemolysis.

[1] = Phase 2 study in PNH subjects: lactate dehydrogenase levels; type: in vivo, human; details: Compound 1 100 mg TID + IV eculizumab
Description: as §1
All doses are taken approximately 15-30 minutes after completion of a meal or snack. […]
as §2
Lactate dehydrogenase is a pharmacodynamic marker that is measured from blood drawn on Day 1, Week 1, Week 2, and Week 4 (FIGS. 13A & 13B and Table 15). High levels of LDH in the blood can be an indication of hemolysis.

rabbit erythrocytes = experiment: CAP-mediated hemolysis assay with rabbit erythrocytes; type: cell-based; details: Oryctolagus cuniculus, Erythrocyte; AP activity in vitro

## CC(=O)c1nn(CC(=O)N2C[C@H](F)C[C@H]2C(=O)Nc2cccc(Br)n2)c2ccc(-c3cnc(C)nc3)cc12 [Compound 1, (2S,4R)-1-(2-(3-acetyl-5-(2-methylpyrimidin-5-yl)-1H-indazol-1-yl)acetyl)-N-(6-bromopyridin-2-yl)-4-fluoropyrrolidine-2-carboxamide]
C3 fragment deposition; PNH subject 003-001, DAY 1
  C3 FRAGMENT DEPOSITION (%) CFB (change from baseline): 0.00%
C3 fragment deposition; PNH subject 003-001, DAY 1 (baseline), flow cytometry
  C3 FRAGMENT DEPOSITION (%) Observed: 2.60%
C3 fragment deposition; PNH subject 003-001, WEEK 2
  C3 FRAGMENT DEPOSITION (%) CFB (change from baseline): −0.50%
C3 fragment deposition; PNH subject 003-001, WEEK 2, flow cytometry
  C3 FRAGMENT DEPOSITION (%) Observed: 2.10%
C3 fragment deposition; PNH subject 003-001, WEEK 4
  C3 FRAGMENT DEPOSITION (%) CFB (change from baseline): −0.50%
C3 fragment deposition; PNH subject 003-001, WEEK 4, flow cytometry
  C3 FRAGMENT DEPOSITION (%) Observed: 2.10%
C3 fragment deposition; PNH subject 003-002, DAY 1
  C3 FRAGMENT DEPOSITION (%) CFB (change from baseline): 0.00%
C3 fragment deposition; PNH subject 003-002, DAY 1 (baseline), flow cytometry
  C3 FRAGMENT DEPOSITION (%) Observed: 4.20%
C3 fragment deposition; PNH subject 003-002, WEEK 2
  C3 FRAGMENT DEPOSITION (%) CFB (change from baseline): −3.10%
C3 fragment deposition; PNH subject 003-002, WEEK 2, flow cytometry
  C3 FRAGMENT DEPOSITION (%) Observed: 1.10%
C3 fragment deposition; PNH subject 003-002, WEEK 4
  C3 FRAGMENT DEPOSITION (%) CFB (change from baseline): −3.10%
C3 fragment deposition; PNH subject 003-002, WEEK 4, flow cytometry
  C3 FRAGMENT DEPOSITION (%) Observed: 1.10%
[1]; subject 003-001, DAY 1 (baseline)
  LDH Observed: 357 U/L
[1]; subject 003-001, DAY 1
  LDH CFB (change from baseline): 0 U/L
[1]; subject 003-001, WEEK 1
  LDH CFB (change from baseline): −83 U/L
  LDH Observed: 274 U/L
[1]; subject 003-001, WEEK 2
  LDH CFB (change from baseline): −105 U/L
  LDH Observed: 252 U/L
[1]; subject 003-001, WEEK 4
  LDH CFB (change from baseline): −86 U/L
  LDH Observed: 271 U/L
[1]; subject 003-002, DAY 1 (baseline)
  LDH Observed: 210 U/L
[1]; subject 003-002, DAY 1
  LDH CFB (change from baseline): 0 U/L
[1]; subject 003-002, WEEK 1
  LDH CFB (change from baseline): −52 U/L
  LDH Observed: 158 U/L
[1]; subject 003-002, WEEK 2
  LDH CFB (change from baseline): −40 U/L
  LDH Observed: 170 U/L
[1]; subject 003-002, WEEK 4
  LDH CFB (change from baseline): −31 U/L
  LDH Observed: 179 U/L
Rabbit erythrocytes
  IC50: 27 nM

Reference: patent US20250032490A1, “THERAPEUTIC REGIMENS FOR TREATMENT OF PAROXYSMAL NOCTURNAL HEMOGLOBINURIA” (Achillion Pharmaceuticals, Inc., priority 2017, published 2025)
